# Data as given in patent US8969288B2 (Indiana University Research and Technology Corporation, priority 2008, dated 2015).
# Read-outs that look alike come from different tables or passages of the source. Square brackets hold non-standard residues; d marks the D form. Side chains are listed from the residue outwards. Ends that are not written are not given here. Peptide text beside a SMILES is read from it. maleimide = maleimide activating group on PEG that reacts with a thiol-containing amino acid by Michael addition to form a thioether linkage (PEGylation); Aib = CC(C)(N)C(=O)O; Sar = CNCC(=O)O
# Key:
# glucagon receptor = glucagon receptor (Homo sapiens, UniProt P47871); assay: glucagon antagonism of Class 4 peptides, cAMP production in vitro; format: cell-based; details: PLA at position 6 versus positions 4 and 5
# glucagon receptor, sequence (P47871 26-477): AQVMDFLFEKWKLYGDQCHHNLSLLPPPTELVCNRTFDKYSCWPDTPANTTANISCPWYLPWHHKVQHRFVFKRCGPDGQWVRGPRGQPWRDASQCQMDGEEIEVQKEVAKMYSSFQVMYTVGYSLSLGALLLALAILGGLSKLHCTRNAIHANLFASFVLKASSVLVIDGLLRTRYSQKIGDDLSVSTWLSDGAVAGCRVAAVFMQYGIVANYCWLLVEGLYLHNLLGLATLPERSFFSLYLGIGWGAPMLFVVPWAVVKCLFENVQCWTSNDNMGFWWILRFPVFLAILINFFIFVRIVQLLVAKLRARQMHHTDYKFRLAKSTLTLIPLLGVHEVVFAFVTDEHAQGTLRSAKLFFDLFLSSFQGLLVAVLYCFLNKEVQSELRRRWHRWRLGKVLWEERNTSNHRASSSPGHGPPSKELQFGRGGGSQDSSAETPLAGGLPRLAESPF
# [1] = Dipeptide cleavage half time in PBS on model hexapeptide (HPLC, LC-MS); format: physicochemical; details: for Relative peak area(%), HPLC peak a: molecular weight 702; for Relative peak area(%), HPLC peak b: molecular weight 902
# Method: The hexapeptide was assembled on a peptide synthesizer.
# Then it was incubated at 37° C. in a water bath. […] HPLC was used to monitor the cleavage reaction.
# The flow rate was 1 mL/min.
# The slope of this plot gives the rate constant I′.
# GLP-1 receptor = GLP-1 receptor (Homo sapiens, UniProt P43220); assay: GLP-receptor Luciferase assay of prodrug samples incubated in PBS; format: cell-based; details: Table 5
# GLP-1 receptor, sequence (P43220 24-463, species assumed): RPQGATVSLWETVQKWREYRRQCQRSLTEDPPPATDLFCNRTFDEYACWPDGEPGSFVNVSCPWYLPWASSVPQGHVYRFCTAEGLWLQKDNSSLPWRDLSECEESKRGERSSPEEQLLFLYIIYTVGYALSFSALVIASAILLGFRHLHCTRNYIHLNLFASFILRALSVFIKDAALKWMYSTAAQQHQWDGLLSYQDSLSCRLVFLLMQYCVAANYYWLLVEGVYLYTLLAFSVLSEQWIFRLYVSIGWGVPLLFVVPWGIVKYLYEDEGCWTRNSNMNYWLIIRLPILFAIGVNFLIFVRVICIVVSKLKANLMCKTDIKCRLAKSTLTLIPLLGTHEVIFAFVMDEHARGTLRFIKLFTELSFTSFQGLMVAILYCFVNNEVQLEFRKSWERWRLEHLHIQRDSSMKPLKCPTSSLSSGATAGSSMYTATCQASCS
compound,measurement,setting,value
C[C@H](O)[C@@H](NC(=O)CNC(=O)[C@@H](CCCNC(=N)N)NC(=O)[C@H](NC(=O)[C@@H](Cc1c[nH]cn1)NC(=O)CN(C)C(=O)[C@@H](N)CCCCN)[C@H](C)O)C(=O)N[C@H](Cc1ccccc1)C(N)=O [lys-sar-dHdTdRGdTdF-NH2] (H-K[Sar][dH][dT][dR]G[dT][dF]-NH2),"Relative peak area(%), HPLC peak a","5 h in plasma pH 7.4, 37° C., molecular weight 702",17.0%
same,"Relative peak area(%), HPLC peak b","5 h in plasma, molecular weight 902",83.0%
same,"Relative peak area(%), HPLC peak a",11 h in plasma,29.2%
same,"Relative peak area(%), HPLC peak b",11 h in plasma,70.8%
same,"Relative peak area(%), HPLC peak a",24 h in plasma,60.2%
same,"Relative peak area(%), HPLC peak b",24 h in plasma,39.8%
same,"Relative peak area(%), HPLC peak a",32 h in plasma,54.0%
same,"Relative peak area(%), HPLC peak b",32 h in plasma,46.0%
same,"Relative peak area(%), HPLC peak a",48 h in plasma,27.6%
same,"Relative peak area(%), HPLC peak b",48 h in plasma,72.4%
PLA6 analog: glucagon peptide with first 5 amino acids removed and remaining N-terminal amino group replaced with a hydroxyl group (phenyl-lactic acid),glucagon antagonist potency compared with analogs having a slightly extended N-terminus,glucagon receptor,appreciably more potent antagonist
C[C@@H](O)[C@H](NC(=O)CNC(=O)[C@H](CCCNC(=N)N)NC(=O)[C@H](CO)NC(=O)[C@H](Cc1c[nH]cn1)NC(=O)CN(C)C(=O)[C@@H](N)CCCCN)C(=O)N[C@@H](Cc1ccccc1)C(N)=O [lys-sar-HSRGTF-NH2] (H-K[Sar]HSRGTF-NH2; N-terminus assumed),"Relative peak area(%), HPLC peak a","[1]; 5 h in PBS pH 7.4, 37° C.",26.5%
same,"Relative peak area(%), HPLC peak b","[1]; 5 h in PBS pH 7.4, 37° C.",73.5%
same,"Relative peak area(%), HPLC peak a",[1]; 8 h in PBS,28.9%
same,"Relative peak area(%), HPLC peak b",[1]; 8 h in PBS,71.1%
same,"Relative peak area(%), HPLC peak a",[1]; 24 h in PBS,28.8%
same,"Relative peak area(%), HPLC peak b",[1]; 24 h in PBS,71.2%
same,"Relative peak area(%), HPLC peak a",[1]; 31 h in PBS,77.7%
same,"Relative peak area(%), HPLC peak b",[1]; 31 h in PBS,22.3%
same,"Relative peak area(%), HPLC peak a",[1]; 47 h in PBS,90.0%
same,"Relative peak area(%), HPLC peak b",[1]; 47 h in PBS,10.0%
same,half-life,"[1]; phosphate buffered saline (PBS) buffer, pH 7.4",14 h
"40 k PEG-Aib^−1-P^0,C^24GLP(7-36): Aib^−1-P^0,C^24GLP(7-36) pegylated by maleimido-functioned 40 k Da PEG on the SH group of 24-Cys ([Aib]PHAEGTFTSDVSSYLEGQAAKEFIC([maleimide-PEG 40 kDa])WLVKGR; ends and bridges not checked)",EC50%/STD ratio,GLP-1 receptor; 30 h in PBS,17.31%
same,EC50%/STD ratio,GLP-1 receptor; 54 h in PBS,27.74%
same,EC50%/STD ratio,GLP-1 receptor; 240 h in PBS,66.49%
same,EC50%/STD ratio,GLP-1 receptor; […] in PBS,55.90%
